Test results taken from article PMC11995226, “Linker-Determined Folding and Hydrophobic Interactions Explain a Major Difference in PROTAC Cell Permeability” (ACS Medicinal Chemistry Letters, 2025).
In brackets after ≈: the same amount, converted by molar mass. Like-named read-outs stand apart in the source and are kept apart here.

Key:
[1] = EPSA (experimental polar surface area, chromatographic); format: physicochemical
Procedure: 1. Experimental and Computational Methods […]
EPSA. EPSA retention times for 1 and 2 were determined at Sygnature Discovery. In brief, the
EPSA assay was performed on a Waters Acquity UPC2 system equipped with a PDA and a
QDa detector, using a Phenomenex Chirex (S)-VAL and (R)-NEA LC column (50 x 4.6 mm).
A gradient of MeOH, containing 20 mM ammonium formate, in CO2 was used as eluent.

[2] = parameters: method as in PMID 39693386; conditions: logarithm of Pe; Data reported recently; cited from earlier work
[3] = FaSSIF and FeSSIF solubility; format: physicochemical
Procedure: 1. Experimental and Computational Methods
Fasted and Fed State Simulated Intestinal Fluid (FaSSIF and FeSSIF) Solubility.
Suspensions of amorphous 1 and 2 were stirred at 37 °C in FaSSIF and FeSSIF for 24 h ± 4 h
prior to filtration and analysis of the filtrate. The solubility was determined via HPLC-MS
analysis of the filtrate using a calibration curve (external standard). […]

[4] = parameters: method as in PMID 39693386; conditions: Data reported recently; cited from earlier work
[5] = FaSSIF, pH 6.5, 37 °C, read-out: Solubility FaSSIF, pH 6.5
[6] = FeSSIF, pH 5.0, 37 °C, read-out: Solubility FeSSIF, pH 5.0

EPSA [1] [A^2]	solubility at 24 h [3, 5] [µM]	solubility at 24 h [3, 6] [µM]	SMILES	PAMPA Log[Pe (cm/s)] [2]	Solubility PBS, pH 6.5 [4] [μM]
93.1	18.6 (≈ 18.4 µg/mL)	174 (≈ 172 µg/mL)	Cc1ncsc1-c1ccc(CNC(=O)[C@@H]2C[C@@H](O)CN2C(=O)[C@@H](NC(=O)CCCCCCCCOc2cnc3c(C4CCN(C(=O)c5ccc(OC(F)(F)F)cc5)CC4)ncnc3c2)C(C)(C)C)cc1 [PROTAC 1]	-8.3 log10(Pe in cm/s)	< 0.1
91.5	53.2 (≈ 52.7 µg/mL)	349 (≈ 346 µg/mL)	Cc1ncsc1-c1ccc(CNC(=O)[C@@H]2C[C@@H](O)CN2C(=O)[C@@H](NC(=O)CCOCCOCCOc2cnc3c(C4CCN(C(=O)c5ccc(OC(F)(F)F)cc5)CC4)ncnc3c2)C(C)(C)C)cc1 [PROTAC 2]	-5.4 log10(Pe in cm/s)	
